In publication PMC11012799 (Molecules, 2024):
≈ marks a conversion by molar mass, not a printed value.

Assays:
[1] = tested on: Staphylococcus aureus ATCC 6538; test: MIC, two-fold microdilution (EUCAST), S. aureus reference strain; type: cell-based; conditions: Staphylococcus aureus, ATCC6538, 18 h, read-out: MIC (µM) Staphylococcus aureus ATCC 6538
From the text: (§1) A panel of reference bacteria, including Escherichia coli NCTC 8196, Staphylococcus aureus ATCC 6538, Klebsiella pneumoniae ATCC 13883, and Pseudomonas aeruginosa NCTC 6749, was used to assess the antibacterial activity of the nine tested aziridine phosphines (1–4) and aziridine phosphine oxides (5–9). The two-fold microdilution method, following EUCAST guidelines, was used to determine a minimal inhibitory concentration (MIC) of each compound, as presented in Table S1.
(§2) Antibacterial activity: The in vitro antibacterial activity of nine tested aziridine phosphines (1–4) and aziridine phosphine oxides (5–9) was evaluated against reference bacterial strains (E. coli NCTC 8196, S. aureus ATCC 6538, K. pneumoniae ATCC 13883, P. aeruginosa NCTC 6749) and 12 S. aureus clinical isolates, including two methicillin-resistant isolates (MRSA, D15 and D17) obtained from infected patients hospitalized at the Oncological Hospital in Lodz (Poland). All strains were kept frozen at −80 °C in Tryptic Soy Broth with 15% glycerol. The minimal inhibitory concentration (MIC) is defined as the lowest concentration of the compound that prevents visible growth of bacteria using the microdilution method followed the EUCAST guidelines. Each compound was added to 96-well microplates in two-fold dilutions at concentrations from 3.125 to 100 μM in Mueller–Hinton broth. […] Bacterial culture was added into wells at a density of 5 × 10^5 CFU mL^−1, and plates were incubated at 37 °C for 18 h. As a positive control, an untreated bacterial culture was used, and a clear culture medium served as a negative control. The optical density at OD600 was measured using the SpectraMax i3 Multi-Mode Platform (Molecular Devices, San Jose, CA, USA). Ciprofloxacin hydrochloride (CIP, Sigma-Aldrich, Darmstadt, Germany) was used as a reference antimicrobial drug.

[2] = tested on: Escherichia coli NCTC 8196; test: MIC, two-fold microdilution (EUCAST), E. coli reference strain; type: cell-based; conditions: Escherichia coli, NCTC8196, 18 h, read-out: MIC (µM) Escherichia coli NCTC 8196
From the text: as §1, §2

HeLa cells = test: Intracellular ROS measurement (H2DCFDA, flow cytometry); type: cell-based, human; conditions: 24 h, concentration equal to IC50, H2DCFDA staining
Experimental: The intracellular ROS levels were evaluated using 2′,7′-dichlorofluorescein diacetate (H2DCFDA) staining. This cell membrane-permeable probe is deacetylated by cellular esterases to a non-fluorescent compound, which is then oxidized by ROS to 2′,7′-dichlorofluorescein (DCF), which remains in cells, is not removed from them, and emits strong fluorescence that can be quantified using a flow cytometer. To evaluate oxidative stress, HeLa cells were treated with the respective compound at a concentration equal to its IC50 value for 24 h, followed by staining with H2DCFDA. […]
Figure 5 Intracellular ROS generation in HeLa cells after treatment with 5 (blue) and 7 (green) for 24 h at 37 °C and 5% CO2. […] Oxidative stress was evaluated using H2DCFDA by flow cytometry. Data are expressed as the mean ± SD of two experiments. Statistical significance in comparison with the untreated control, measured by two-way analysis of variance (ANOVA) followed by Bonferroni multiple comparison test, is indicated by asterisks: (*) p < 0.05.
Reactive oxygen species measurement: The intracellular level of ROS was analysed by staining with 2′,7′–dichlorofluorescein diacetate (H2DCFDA, Sigma-Aldrich, Darmstadt, Germany). […] This product is highly fluorescent and can be detected on a flow cytometer. […]

SMILES: CC(C)C[C@H]1CN1c1ccccc1P(=O)(c1ccccc1)c1ccccc1 [Compound 7]
- MIC [1]: 50 µM (≈ 18.8 µg/mL)
- MIC [2]: > 100 µM
- intracellular ROS levels compared to untreated control (HeLa cells): increase in ROS levels

SMILES: CC(C)[C@@H]1CN1c1ccccc1P(=O)(c1ccccc1)c1ccccc1 [Compound 5]
- MIC [1]: 50 µM (≈ 18.1 µg/mL)
- MIC [2]: > 100 µM
- intracellular ROS levels compared to untreated control (HeLa cells): the effect was significant only for 5
